Data reported in US7906488B2, “Sphingolipids in treatment and prevention of steatosis and of steatosis or of hepatotoxicity and its sequelae” (Nederlandse Organisatie Voor …, priority 2004, dated 2011).

Tests used:
[1] = tested on: galactosamine-injured primary rat hepatocytes; details: cited from earlier work
APOE*3Leiden mice = assay: Effect of dietary sphingolipids on plasma C and TG levels (0.1, 0.2, 0.4% in diet); type: in vivo; details: 0.4% sphingolipid in diet, compared with 0.2%
Description: Sphingolipids: The three sphingolipids that represent the most abundant natural complex sphingolipid classes and the three of the simplest natural sphingolipids, the sphingoid bases that can be formed by enzymatic breakdown of complex sphingolipids in the intestine were used. Sphingomyelin (mainly N-palmitoyl-sphingosine-1-phosphocholine) from egg was obtained from Larodan Fine Chemicals (Stockholm, Sweden). Yeast-derived (semi)synthetic ceramide III (N-stearoyl-phytosphingosine), cerebroside (N-stearoyl-phytosphingosine-1-glucose) and phytosphingosine (PS) were from Cosmoferm BV (Delft, the Netherlands). Sphinganine and sphingosine were from Avanti Polar Lipids (Albaster, Ala.). Animals and diets: Heterozygous female APOE*3Leiden transgenic mice (Van Vlijmen et al. 1994. J. Clin. Invest 93:1403-1410.) (6 months old) were fed a Western-type diet (Hope Farms, Woerden, the Netherlands) containing 15% cocoa butter, 0.25% cholesterol, 1% corn oil, 40.5% sucrose, 20% acid casein, 10% corn starch and 5.95% cellulose (all w/w) for 5 weeks. The mice were allowed free access to food and water. Body weight and food intake were monitored weekly. In the first experiment (FIG. 2), the mice were randomized after these 5 weeks into 7 groups (n=6), based on plasma cholesterol, triglycerides, and body weight. Subsequently, the mice were fed for three weeks the same diet without or with 0.1% (w/w) phytosphingosine (PS), sphingosine, sphinganine, cerebroside, ceramide III, or sphingomyelin. […]
Plasma parameters: Tail blood samples were collected in EDTA-coated cups, or in paraoxon-coated capillaries to prevent lipolysis as described in Zambon et al. 1993 (Zambon et al. 1993. J. Lipid Res. 34:1021-1028). Plasma lipid parameters were determined using commercial kits for total cholesterol (C) Chol R1 from Roche Diagnostics, Mannheim, Germany), non-esterified free fatty acids (FFA) (NEFA-C; Wako chemicals, Neuss, Germany), Total triglycerides (TG) (Triglyceride GPO-Trinder; Sigma, St. Louis, Mo.), β-hydroxybutyrate (β-HB; Sigma) and ALAT (Reflotron GPT; Roche). Serum amyloid A (SAA) was measured by ELISA (Biosource, Nivelles, Belgium) and fibrinogen by sandwich ELISA, as described in Koopman et al., 2005 (Koopman et al. 2005. Fibrinol Proteol 11:19). […] Hepatic VLDL-TG production: The rate of hepatic VLDL-TG production, de novo apoB secretion, and VLDL composition were determined in overnight-fasted mice. […] After 30 min, the animals received a Triton WR1339 injection (Tyloxapol, Sigma; 500 mg/kg body weight in 100 μl saline) to prevent systemic lipolysis of newly-secreted hepatic VLDL-TG (Aalto-Setala et al. 1992. J. Clin. Invest 90:1889-1900.27) Blood samples were drawn at 0, 15, 30, 60, and 90 min after Triton WR1339 injection and plasma TG concentrations were determined. […]

C57bI mice = details: intraperitoneal injection; cited from earlier work
rats = details: administration to the food of rats; cited from earlier work

| Molecule | Plasma C (APOE*3Leiden mice) | other results |
| --- | --- | --- |
| CCCCCCCCC/C=C\CC/C=C/[C@@H](O)[C@H](CO[C@@H]1O[C@H](CO)[C@@H](O)[C@H](O)[C@H]1O)NC(=O)CCCCCCCCCCCCCCC [LCC, 1-O-(β-D-glucopyranosyl)-(2S,3R,4E,8Z)-2-N-palmityloctadecasphinga-4,8-diene] |  | Release into the culture medium of GPT and SDH [1]: reduce the release |
| CCCCCCCCCCCCC/C=C/[C@@H](O)[C@@H](N)CO [sphingosine] | decreased even more |  |
| CCCCCCCCCCCCCCCCCC(=O)N[C@@H](CO)[C@H](O)[C@H](O)CCCCCCCCCCCCCC [ceramide III, N-stearoyl-phytosphingosine] | decreased even more |  |
| glucocerebroside |  | Liver fat content (C57bI mice): reduced |
| CCCCCCCCCCCCC/C=C/[C@@H](O)[C@H](COP(=O)([O-])OCC[N+](C)(C)C)NC(=O)CCCCCCCCCCCCCCC [sphingomyelin, N-palmitoyl-sphingosine-1-phosphocholine] | decreased even more | Chances of occurrence of malignant, chemically induced colon cancer (rats): significantly decrease |
